# System: chloroquine sensitive (CQS) strain (NF54) of P. falciparum
# Test: In vitro antiplasmodial activity, Assay A (parasite lactate dehydrogenase assay)
# Assay type: cell-based
# Settings: Plasmodium falciparum
# Description: Test samples were screened for in vitro antiplasmodial activity against a chloroquine sensitive (CQS) strain (NF54) of the malaria parasite P. falciparum. Continuous in vitro cultures of asexual erythrocyte stages of P. falciparum were maintained using a modified version of the method of Trager and Jensen (1976).1 Quantitative assessment of antiplasmodial activity in vitro was determined via the parasite lactate dehydrogenase assay using a modified method described by Makler (1993). The test samples were tested in triplicate on two separate occasions. Further dilutions were prepared in complete medium on the day of the experiment. Samples were tested as a suspension if not completely dissolved. Chloroquine and artesunate were used as the reference drugs. A full dose-response were performed starting at a concentration of 3000 nM, which is then serially diluted 2-fold in complete medium to give 10 concentrations; with the lowest concentration being approximately 6 nM. The same dilution techniques were used for all samples. References were tested at a starting concentration of 1000 ng/mL. The highest concentration of solvent to which the parasites were exposed has no measurable effect on the parasite viability (data not shown).
row,SMILES,IC50 [nM]
1,"Cn1cc(-c2cc3ncnc(-c4cccc(S(=O)(=O)C5CC5)c4)c3o2)ccc1=O [Compound D22, 5-(4-(3-(cyclopropylsulfonyl)phenyl)furo[3,2-d]pyrimidin-6-yl)-1-methylpyridin-2(1H)-one]",> 50
2,"CC(C)(C)OC(=O)c1ccc(-c2cc3ncnc(-c4ccnc(C(C)(C)O)c4)c3o2)cc1 [Compound D162, tert-butyl 4-(4-(2-(2-hydroxypropan-2-yl)pyridin-4-yl)furo[3,2-d]pyrimidin-6-yl)benzoate]",< 15
3,"COC(=O)c1cccc(-c2cc3ncnc(-c4ccnc(C(C)(C)O)c4)c3o2)c1 [Compound D163, methyl 3-(4-(2-(2-hydroxypropan-2-yl)pyridin-4-yl)furo[3,2-d]pyrimidin-6-yl)benzoate]",< 15
4,"CC(C)(O)c1cc(-c2ncnc3cc(-c4cccc(C(=O)O)c4)oc23)ccn1 [Compound D164, 3-(4-(2-(2-hydroxypropan-2-yl)pyridin-4-yl)furo[3,2-d]pyrimidin-6-yl)benzoic acid]",< 15
5,"CC(C)(O)c1cc(F)cc(-c2ncnc3cc(-c4ccc(C(=O)N5CCOCC5)cc4)oc23)c1 [Compound D165, (4-(4-(3-fluoro-5-(2-hydroxypropan-2-yl)phenyl)furo[3,2-d]pyrimidin-6-yl)phenyl)(morpholino) methanone]",< 15

# System: CQC sensitive strain (NF54) of P. falciparum
# Test: In vitro antiplasmodial activity, Assay B (as described by Vennerstrom et al. 2004)
# Assay type: cell-based
# Settings: Plasmodium falciparum; NF54, Vennerstrom et al. method
# Description: Compounds were screened against CQC sensitive strain (NF54) of P. falciparum in vitro as described by Vennerstrom et al. (2004). A full dose-response were performed starting at a concentration of 3000 nM, which is then serially diluted 2-fold in complete medium to give 10 concentrations; with the lowest concentration being approximately 6 nM. The same dilution techniques were used for all samples. References were tested at a starting concentration of 1000 ng/mL. The highest concentration of solvent to which the parasites were exposed has no measurable effect on the parasite viability (data not shown).
row,SMILES,IC50 [nM]
1,"CC(=O)c1ccc(-c2cc3ncnc(-c4cccc(S(=O)(=O)C5CC5)c4)c3o2)cn1 [Compound P2, 1-(5-(4-(3-(cyclopropylsulfonyl)phenyl)furo[3,2-d]pyrimidin-6-yl)pyridin-2-yl)ethan-1-one]",> 50
2,"CS(=O)(=O)c1ccc(-c2cc3ncnc(-c4cccc(C(=O)N5C[C@H]6C[C@@H]5CO6)c4)c3o2)cc1 [Compound P3, ((1R,4R)-2-oxa-5-azabicyclo[2.2.1]heptan-5-yl)(3-(6-(4-(methylsulfonyl)phenyl)furo [3,2-d]pyrimidin-4-yl)phenyl)methanone]",> 50
3,"CS(=O)(=O)c1ccc(-c2cc3ncnc(-c4cccc(C(=O)N5C[C@H]6C[C@@H]5CO6)c4F)c3o2)cc1 [Compound P4, ((1R,4R)-2-oxa-5-azabicyclo[2.2.1]heptan-5-yl)(2-fluoro-3-(6-(4-(methylsulfonyl)phenyl)furo [3,2-d]pyrimidin-4-yl)phenyl)methanone]",15 to 50
4,"CS(=O)(=O)c1ccc(-c2cc3ncnc(-c4cccc(C(=O)N5C[C@@H]6C[C@H]5CO6)c4F)c3o2)cc1 [Compound P5, ((1S,4S)-2-oxa-5-azabicyclo[2.2.1]heptan-5-yl)(2-fluoro-3-(6-(4-(methylsulfonyl)phenyl)furo [3,2-d]pyrimidin-4-yl)phenyl)methanone]",15 to 50
5,"CC(C)(O)Cc1cc(-c2ncnc3cc(-c4ccc(S(C)(=O)=O)cc4)oc23)ccn1 [Compound P6, 2-methyl-1-(4-(6-(4-(methylsulfonyl)phenyl)furo [3,2-d]pyrimidin-4-yl)pyridin-2-yl)propan-2-ol]",> 50
6,"CC(C)(O)c1cc(-c2ncnc3cc(-c4ccc(S(C)(=O)=O)cc4)oc23)ccn1 [Compound P7, 2-(4-(6-(4-(methylsulfonyl)phenyl)furo [3,2-d]pyrimidin-4-yl)pyridin-2-yl)propan-2-ol]",15 to 50
7,"CN(C)C(=O)c1ccc(-c2cc3ncnc(-c4ccnc(C(C)(C)O)c4)c3o2)cc1 [Compound P8, 4-(4-(2-(2-hydroxypropan-2-yl)pyridin-4-yl)furo[3,2-d]pyrimidin-6-yl)-N,N-dimethylbenzamide]",15 to 50
8,"CN(C)C(=O)c1ccc(-c2cc3ncnc(-c4cccc(C(C)(C)O)c4)c3o2)cc1 [Compound P9, 4-(4-(3-(2-hydroxypropan-2-yl)phenyl)furo[3,2-d]pyrimidin-6-yl)-N,N-dimethylbenzamide]",15 to 50
9,"CC(C)(O)c1cc(-c2ncnc3cc(-c4ccc(C(=O)O)cc4)oc23)ccn1 [Compound P10, 4-(4-(2-(2-hydroxypropan-2-yl)pyridin-4-yl)furo[3,2-d]pyrimidin-6-yl)benzoic acid]",15 to 50
10,"CC(C)(O)c1cc(-c2ncnc3cc(-c4ccc(C(=O)N5CCOCC5)cc4)oc23)ccn1 [Compound P11, (4-(4-(2-(2-hydroxypropan-2-yl)pyridin-4-yl)furo[3,2-d]pyrimidin-6-yl)phenyl)(morpholino) methanone]",< 15
11,"CC(C)(O)c1cc(-c2ncnc3cc(-c4ccc(C(=O)N5CC(F)(F)C5)cc4)oc23)ccn1 [Compound P12, (3,3-difluoroazetidin-1-yl)(4-(4-(2-(2-hydroxypropan-2-yl)pyridin-4-yl)furo[3,2-d]pyrimidin-6-yl)phenyl)methanone]",15 to 50
12,"CC(C)(O)c1cc(-c2ncnc3cc(-c4ccc(C(=O)N5CCOCC5)cc4)oc23)cc(F)n1 [Compound P14, (4-(4-(2-fluoro-6-(2-hydroxypropan-2-yl)pyridin-4-yl)furo[3,2-d]pyrimidin-6-yl)phenyl)(morpholino) methanone]",15 to 50
13,"C[C@@H]1CN(C(=O)c2ccc(-c3cc4ncnc(-c5ccnc(C(C)(C)O)c5)c4o3)cc2)C[C@@H](C)O1 [Compound P15, ((2R,6R)-2,6-dimethylmorpholino)(4-(4-(2-(2-hydroxypropan-2-yl)pyridin-4-yl)furo[3,2-d]pyrimidin-6-yl)phenyl)methanone]",< 15
14,"C[C@H]1CN(C(=O)c2ccc(-c3cc4ncnc(-c5ccnc(C(C)(C)O)c5)c4o3)cc2)C[C@H](C)O1 [Compound P16, ((2S,6S)-2,6-dimethylmorpholino)(4-(4-(2-(2-hydroxypropan-2-yl)pyridin-4-yl)furo[3,2-d]pyrimidin-6-yl)phenyl)methanone]",< 15
15,"CN1CCN(C(=O)c2ccc(-c3cc4ncnc(-c5ccnc(C(C)(C)O)c5)c4o3)cc2)CC1 [Compound P22, (4-(4-(2-(2-hydroxypropan-2-yl)pyridin-4-yl)furo[3,2-d]pyrimidin-6-yl)phenyl)(4-methylpiperazin-1-yl)methanone]",< 15
16,"CC(C)(O)c1cc(-c2ncnc3cc(-c4ccc(S(C)(=N)=O)cc4)oc23)ccn1 (stereo not shown) [Compound P25, (4-(4-(2-(2-hydroxypropan-2-yl)pyridin-4-yl)furo[3,2-d]pyrimidin-6-yl)phenyl)(imino)(methyl)-λ6-sulfanone]",15 to 50
17,"CC(C)(O)c1cc(-c2ncnc3cc(-c4ccc([S@@](C)(=N)=O)cc4)oc23)ccn1 [Compound P26, (S)-(4-(4-(2-(2-hydroxypropan-2-yl)pyridin-4-yl)furo[3,2-d]pyrimidin-6-yl)phenyl)(imino)(methyl)-λ6-sulfanone]",15 to 50
18,"CC(C)(O)c1cc(-c2ncnc3cc(-c4ccc([S@](C)(=N)=O)cc4)oc23)ccn1 [Compound P27, (R)-(4-(4-(2-(2-hydroxypropan-2-yl)pyridin-4-yl)furo[3,2-d]pyrimidin-6-yl)phenyl)(imino)(methyl)-λ6-sulfanone]",15 to 50
19,"CC(C)(O)c1cccc(-c2ncnc3cc(-c4ccc([S@@](C)(=N)=O)cc4)oc23)c1F [Compound P29, (S)-(4-(4-(2-fluoro-3-(2-hydroxypropan-2-yl)phenyl)furo[3,2-d]pyrimidin-6-yl)phenyl)(imino)(methyl)-λ6-sulfanone]",< 15
20,"CC(C)(O)c1cccc(-c2ncnc3cc(-c4ccc([S@](C)(=N)=O)cc4)oc23)c1F [Compound P30, (R)-(4-(4-(2-fluoro-3-(2-hydroxypropan-2-yl)phenyl)furo[3,2-d]pyrimidin-6-yl)phenyl)(imino)(methyl)-λ6-sulfanone]",< 15

# Reference: patent US20260042772A1, “FURO PYRIMIDINE DERIVATES” (Merck Patent GmbH, priority 2022, published 2026)
